Measurements: PubChem BioAssay AID248 (DTP/NCI, 2004)
Values joined by “and” are separate entries in the source; they are usually repeats but may differ in a detail not shown here. Equal entries are not always repeated. Toxic doses and inconclusive results are not listed. Rule as the data show it: active = T/C of 150% or more; inactive = T/C below 125%.

Test system: L1210 leukemia ip in BDF1 mice, survival T/C
Test: NCI In Vivo Anticancer Drug Screen. Data for tumor model L1210 Leukemia (intraperitoneal) in B6D2F1 (BDF1) mice
Settings: endpoint: mean survival time, higher = longer survival
How it was run: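 Transplantable tumor model; survival measured in treated vs vehicle control mice. Value = treated/control.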

[1] = dose: 100.0 mg/kg/injection, schedule: Q04DX002 (ip), vehicle: saline
[2] = dose: 200.0 mg/kg/injection, schedule: Q04DX002 (ip), vehicle: saline
[3] = dose: 400.0 mg/kg/injection, schedule: Q04DX002 (ip), vehicle: saline
[4] = dose: 100.0 mg/kg/injection, schedule: Q01DX001 (ip), vehicle: saline
[5] = dose: 200.0 mg/kg/injection, schedule: Q01DX001 (ip), vehicle: saline
[6] = dose: 400.0 mg/kg/injection, schedule: Q01DX001 (ip), vehicle: saline
[7] = dose: 100.0 mg/kg/injection, schedule: Q01DX009 (ip), vehicle: Klucel (hydroxypropylcellulose) (HPC)
[8] = dose: 100.0 mg/kg/injection, schedule: Q04DX003 (ip), vehicle: saline
[9] = dose: 200.0 mg/kg/injection, schedule: Q01DX009 (ip), vehicle: Klucel (hydroxypropylcellulose) (HPC)
[10] = dose: 200.0 mg/kg/injection, schedule: Q04DX003 (ip), vehicle: saline
[11] = dose: 400.0 mg/kg/injection, schedule: Q01DX009 (ip), vehicle: Klucel (hydroxypropylcellulose) (HPC)
[12] = dose: 400.0 mg/kg/injection, schedule: Q04DX003 (ip), vehicle: saline
[13] = dose: 100.0 mg/kg/injection, schedule: Q01DX009 (ip), vehicle: saline
[14] = dose: 200.0 mg/kg/injection, schedule: Q01DX009 (ip), vehicle: saline
[15] = dose: 100.0 mg/kg/injection, schedule: Q04DX003 (ip), vehicle: Klucel (hydroxypropylcellulose) (HPC)
[16] = dose: 200.0 mg/kg/injection, schedule: Q04DX003 (ip), vehicle: Klucel (hydroxypropylcellulose) (HPC)
[17] = dose: 400.0 mg/kg/injection, schedule: Q04DX003 (ip), vehicle: Klucel (hydroxypropylcellulose) (HPC)
[18] = dose: 12.5 mg/kg/injection, schedule: Q01DX009 (ip), vehicle: saline
[19] = dose: 25.0 mg/kg/injection, schedule: Q01DX009 (ip), vehicle: saline
[20] = dose: 50.0 mg/kg/injection, schedule: Q01DX009 (ip), vehicle: saline
[21] = dose: 100.0 mg/kg/injection, schedule: Q01DX001 (ip), vehicle: carboxymethylcellulose (CMC)
[22] = dose: 200.0 mg/kg/injection, schedule: Q01DX001 (ip), vehicle: carboxymethylcellulose (CMC)
[23] = dose: 400.0 mg/kg/injection, schedule: Q01DX001 (ip), vehicle: carboxymethylcellulose (CMC)

Measured: T/C

C=CCC/C(=N\NC(N)=O)c1ccccc1
inactive: dose: 75.0 mg/kg/injection, schedule: Q01DX001 (ip), vehicle: acetone 99 % of control | dose: 150.0 mg/kg/injection, schedule: Q01DX001 (ip), vehicle: acetone 91 % of control | dose: 300.0 mg/kg/injection, schedule: Q01DX001 (ip), vehicle: acetone 110 % of control

COC(=O)C1CCC(=O)CC1
inactive: [1] 96 % of control | [2] 101 % of control | [3] 99 % of control

O=C1c2ccccc2C(=O)c2c(Nc3ccccc3)ccc(NCCO)c21
inactive: [4] 102 % of control | [5] 100 % of control | [6] 97 % of control

CC(=O)Nc1cccc(C(=O)O)c1[N+](=O)[O-]
inactive: [7] 103 % of control | [8] 103 % of control | [9] 97 % of control | [10] 106 % of control | [11] 93 % of control | [12] 103 % of control

CC(C)(C)c1ccc(C(=O)O)cc1Br
inactive: dose: 50.0 mg/kg/injection, schedule: Q04DX003 (ip), vehicle: other 104 % of control | dose: 100.0 mg/kg/injection, schedule: Q04DX003 (ip), vehicle: other 113 % of control | dose: 200.0 mg/kg/injection, schedule: Q04DX003 (ip), vehicle: other 98 % of control

COCCc1cccc(C)n1
inactive: [13] 93 % of control | [8] 93 % of control | [14] 92 % of control | [10] 94 % of control | [12] 91 % of control

O=C1CC=Nc2ccc([N+](=O)[O-])cc21
inactive: [7] 101 % of control | [15] 98 % of control | [9] 97 % of control | [16] 109 % of control | [11] 101 % of control | [17] 108 % of control

CNC(CNC(CO)CC(C)C)Cc1ccc(OCc2ccccc2)cc1 (configuration not stated)
inactive: [18] 102 % of control | [19] 91 % of control | dose: 25.0 mg/kg/injection, schedule: Q04DX003 (ip), vehicle: saline 95 % of control | [20] 94 % of control | dose: 50.0 mg/kg/injection, schedule: Q04DX003 (ip), vehicle: saline 95 % of control | [8] 95 % of control

CC1(C)N=C(N)N=C(N)N1c1cccc(OCCCc2ccccc2)c1
inactive: dose: 25.0 mg/kg/injection, schedule: Q01DX001 (ip), vehicle: Klucel (hydroxypropylcellulose) (HPC) 86 % of control | dose: 50.0 mg/kg/injection, schedule: Q01DX001 (ip), vehicle: Klucel (hydroxypropylcellulose) (HPC) 86 % of control | dose: 100.0 mg/kg/injection, schedule: Q01DX001 (ip), vehicle: Klucel (hydroxypropylcellulose) (HPC) 91 % of control

N=C(N)c1ccc(-c2cc3ccc(C(=N)N)cc3s2)cc1
inactive: dose: 12.5 mg/kg/injection, schedule: Q04DX003 (ip), vehicle: saline with Tween-80 96 % of control | dose: 25.0 mg/kg/injection, schedule: Q04DX003 (ip), vehicle: saline with Tween-80 107 % of control | dose: 50.0 mg/kg/injection, schedule: Q04DX003 (ip), vehicle: saline with Tween-80 96 % of control

CCOC(=O)CS(C)(=O)=O
inactive: [4] 98 % of control | [5] 93 % of control | [6] 94 % of control

CN(N)c1nc2c(N)ncnc2n1C1OC(CO)C(O)C1O (configuration not stated)
inactive: dose: 12.5 mg/kg/injection, schedule: Q01DX005 (ip), vehicle: saline 97 % of control | dose: 25.0 mg/kg/injection, schedule: Q01DX005 (ip), vehicle: saline 108 % of control | dose: 50.0 mg/kg/injection, schedule: Q01DX005 (ip), vehicle: saline 100 % of control

CN(C)c1ccc(Cc2ccc(N(C)C)nc2)cn1
inactive: [15] 110 % of control | [16] 102 % of control | [17] 100 % of control

CCOC(=O)N1C2OC(C(COC(C)=O)=C2COC(C)=O)N1C(=O)OCC
inactive: dose: 12.5 mg/kg/injection, schedule: Q04DX002 (ip), vehicle: saline 99 % of control | dose: 25.0 mg/kg/injection, schedule: Q04DX002 (ip), vehicle: saline 99 % of control | dose: 50.0 mg/kg/injection, schedule: Q04DX002 (ip), vehicle: saline 99 % of control

CC(=O)NNc1ccccc1Cl
inactive: [15] 96 % of control | [16] 117 % of control

O=C(Nc1cccc(F)c1)N(CC(O)c1ccccc1)C1CCCCC1 (configuration not stated)
inactive: [7] 114 % of control | [9] 100 % of control | [11] 97 % of control

FC(F)(F)c1nc2nc(Cl)c(Cl)nc2s1
inactive: dose: 0.5 mg/kg/injection, schedule: Q01DX009 (ip), vehicle: other 116 % of control | dose: 1.0 mg/kg/injection, schedule: Q01DX009 (ip), vehicle: other 106 % of control | dose: 2.0 mg/kg/injection, schedule: Q01DX009 (ip), vehicle: other 101 % of control | dose: 3.12 mg/kg/injection, schedule: Q01DX009 (ip), vehicle: other 114 % of control | dose: 4.0 mg/kg/injection, schedule: Q01DX009 (ip), vehicle: other 107 % of control | dose: 6.25 mg/kg/injection, schedule: Q01DX009 (ip), vehicle: other 103 % of control | dose: 12.5 mg/kg/injection, schedule: Q01DX009 (ip), vehicle: other 103 % of control | dose: 25.0 mg/kg/injection, schedule: Q01DX009 (ip), vehicle: other 101 % of control and 103 % of control

NC(=O)NN=C(CCl)CCl
inactive: [1] 100 % of control | [2] 91 % of control

CCOC(=O)CCSCC(C)(C)C(=O)OCC
inactive: [8] 105 % of control | [10] 105 % of control | [12] 103 % of control

O=C1c2ccccc2-c2cc(Br)cc(Br)c21
inactive: [21] 93 % of control | [22] 98 % of control | [23] 98 % of control

COC1/C=C/OC2(C)Oc3c(C)c(O)c4c(O)c(c(/C=N/N(C)c5ncnc6c5ncn6C5OC(CO)C(O)C5O)c(O)c4c3C2=O)NC(=O)C(C)=C/C=C/C(C)C(O)C(C)C(O)C(C)C(OC(C)=O)C1C (configuration not stated)
inactive: [14] 87 % of control | dose: 400.0 mg/kg/injection, schedule: Q01DX009 (ip), vehicle: saline 94 % of control

CCC1(c2ccccc2)OC1C(=O)OCCC(C)C (configuration not stated)
inactive: [1] 93 % of control | [2] 93 % of control | [3] 101 % of control

CC(=O)OCC1OC2OC(c3ccccc3)=NC2C(OC(C)=O)C1OC(C)=O (configuration not stated)
inactive: dose: 22.5 mg/kg/injection, schedule: Q01DX001 (ip), vehicle: carboxymethylcellulose (CMC) 97 % of control | dose: 45.0 mg/kg/injection, schedule: Q01DX001 (ip), vehicle: carboxymethylcellulose (CMC) 103 % of control | dose: 90.0 mg/kg/injection, schedule: Q01DX001 (ip), vehicle: carboxymethylcellulose (CMC) 105 % of control | dose: 180.0 mg/kg/injection, schedule: Q01DX001 (ip), vehicle: carboxymethylcellulose (CMC) 97 % of control

CN(Cc1ccc(Cl)cc1)C(=O)Nc1ccccc1C(F)(F)F
inactive: dose: 100.0 mg/kg/injection, schedule: Q01DX009 (ip), vehicle: saline with Tween-80 108 % of control | dose: 200.0 mg/kg/injection, schedule: Q01DX009 (ip), vehicle: saline with Tween-80 106 % of control | dose: 400.0 mg/kg/injection, schedule: Q01DX009 (ip), vehicle: saline with Tween-80 103 % of control

O=C(CCCN1CCN(c2ccccc2)CC1)c1ccc(F)cc1
inactive: [18] 122 % of control | [19] 106 % of control | [20] 114 % of control | [13] 111 % of control | [14] 103 % of control

O=C(O)c1ccc([N+](=O)[O-])cc1-n1cccc1
inactive: [15] 95 % of control | [16] 98 % of control | [17] 88 % of control

C[N+]1(C)C2CC(=O)CC1C1CC12 (configuration not stated)
inactive: [20] 91 % of control | [13] 93 % of control | [8] 100 % of control | [14] 88 % of control | [10] 103 % of control

O=C(O)c1ccc(O)cn1
inactive: [21] 93 % of control | [22] 95 % of control | [23] 95 % of control

Cc1ccc(S(=O)(=O)OCCN(CCOS(=O)(=O)c2ccc(C)cc2)c2ccc(N=O)cc2)cc1
inactive: dose: 50.0 mg/kg/injection, schedule: Q01DX001 (ip), vehicle: saline 115 % of control | [4] 124 % of control

CCC(CCl)NC(=O)Nc1cccc2c1CCCC2 (configuration not stated)
inactive: [15] 98 % of control | [16] 96 % of control | [17] 98 % of control
